The numbers were not newly measured in patent publication US20130095160A1, “RESORBABLE POLYSTATIN BIOMATERIALS” (priority 2011, published 2013), which cites them from elsewhere.

One data set deals with eNOS. The note with it: 12 mg (or 10(−5) M lovastatin); previously shown.
For another data set, the target named is T1, SR-BI receptor (Homo sapiens, UniProt Q8WTV0).
T1 sequence (Q8WTV0 1-552): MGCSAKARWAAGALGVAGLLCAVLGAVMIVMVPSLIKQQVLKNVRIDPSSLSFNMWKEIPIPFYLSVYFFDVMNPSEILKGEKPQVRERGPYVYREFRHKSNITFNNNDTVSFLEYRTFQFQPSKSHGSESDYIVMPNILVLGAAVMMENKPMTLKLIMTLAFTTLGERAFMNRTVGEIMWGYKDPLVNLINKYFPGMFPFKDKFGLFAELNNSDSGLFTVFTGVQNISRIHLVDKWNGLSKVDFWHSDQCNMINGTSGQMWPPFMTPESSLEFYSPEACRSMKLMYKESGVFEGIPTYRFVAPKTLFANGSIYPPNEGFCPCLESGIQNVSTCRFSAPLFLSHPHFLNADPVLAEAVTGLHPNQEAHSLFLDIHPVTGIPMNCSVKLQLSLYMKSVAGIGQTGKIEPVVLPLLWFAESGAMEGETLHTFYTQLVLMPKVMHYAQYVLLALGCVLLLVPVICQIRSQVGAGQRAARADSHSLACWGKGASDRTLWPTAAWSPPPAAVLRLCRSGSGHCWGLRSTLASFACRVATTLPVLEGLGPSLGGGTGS
The note with it: via activation of the SR-BI receptor.

On to `CC[C@H](C)C(=O)O[C@H]1C[C@@H](C)C=C2C=C[C@H](C)[C@H](CC[C@@H]3C[C@@H](O)CC(=O)O3)[C@H]21` [lovastatin], for which the “eNOS activation in vitro” value in the data set on eNOS was “maximally effective”. Further, the “efficiency at generating EDNO compared with HDL” value at SR-BI receptor is recorded as “more efficient than HDL”.
